Data from paper PMC9296036, “A peptide interfering with the dimerization of oncogenic KITENIN protein and its stability suppresses colorectal tumour progression” (Clinical and Translational Medicine, 2022).
Ends that are not written are not given here.

Tested on: CT-26/KITENIN-V5 tumours
Assay: Syngeneic subcutaneous tumour model, CT-26/KITENIN-V5 cells in BALB/c mice
Assay type: in vivo, mouse
Conditions: CT-26/KITENIN-V5, KDIP 1 and 5 mg/kg intravenously every other day for 2 weeks, dose dependent
Description: The CT‐26 cell/syngeneic mouse model was used to investigate the in vivo effects of KDIP on colorectal tumourigenesis, as it is reported that a syngeneic mouse tumour model is good for testing the anticancer effects of candidate substances.[25], [26] Male Balb/c mice (5‐week old) were purchased from DaMul Science, Korea and acclimated for 1 week prior to subcutaneous injection of syngeneic CT‐26/EV (3 × 10^6) or CT‐26/KITENIN cells (1 × 10^6) into the dorsum. Tumour volume was calculated using the following equation: V = 1/2 × a × b […], where a and b are the longest and shortest diameters of the tumour (in millimetres), respectively. Tumour volume was measured every other day for 14 days to verify the effects of KDIP. […]
Effect of KAI1 C‐terminal interacting tetraspanin (KITENIN) dimerization‐interfering peptide (KDIP) on tumour growth and metastasis in in vivo mouse model of colorectal cancer (CRC). […] For the evaluation of metastasis, total fluorescence emitted from liver nodules expressing iRFP was measured and counted (left panel) or metastatic tumour growth was counted as nodules that migrated to the surface of the liver, and a metastatic score was obtained by multiplying it with size (middle panel). Metastatic score or total fluorescence is represented as mean ± SEM. […]

Sequence: YARVRRRGPRRWRLVSDEAV [KDIP]
- tumour volume (in words): significantly reduced
